Measurements from patent US20200163984A1, “USE OF ISOVALERYL SPIRAMYCIN I, II AND/OR III IN MANUFACTURING MEDICAMENT FOR TREATING AND/OR PREVENTING TUMOR, AND MEDICAMENT” (SHENYANG FUYANG PHARMACEUTICAL TECHNOLOGY CO., LTD., priority 2017, published 2020).

Legend:
[1] = system: transplanted tumor of human non-small cell lung cancer cell A549; assay: A549 transplanted tumor in nude mice; settings: for Tumor Volume (mm3) (d 1): d1
Protocol: A549 cells in a logarithmic growth phase were taken and subjected to a trypan blue exclusion experiment showing that the cell viability was more than 95%, then the cells were subjected to trypsinization, centrifugation, and supernatant removal. Then cell concentration was adjusted to 1×10^7/ml with matrigel, then each nude mouse was inoculated subcutaneously with 0.2 ml of cells at its right armpit and recorded as the first day of inoculation. When the tumor grows to be greater than or equal to 100 mm^3, the mice were randomly divided into 11 groups with 6 mice in each group: a model group, a cyclophosphamide group, isovaleryl spiramycin I groups with doses of 25, 50 and 100 mg/kg, isovaleryl spiramycin II groups with doses of 25, 50 and 100 mg/kg, and isovaleryl spiramycin III groups with doses of 25, 50 and 100 mg/kg. Each group was continuously administered intragastrically for 30 days with a dose of 20 ml/kg. The mice were sacrificed the next day after drug withdrawal and the indicators were tested. The long diameter and short diameter of the tumor, and the body weight of each mouse were recorded every 3 days from drug administration to nude mouse sacrifice.
The body weight of the nude mice and the long diameter (a) and short diameter (b) of the transplanted tumor were measured every 3 days, and the tumor volume (v), relative tumor volume (RTV) and relative tumor proliferation rate (T/C) are calculated respectively according to the following formulas, wherein V=a×b^2/2; RTV=V/V0 (V0 is the tumor volume before administration, V is the tumor volume before sacrifice), and T/C (%)=treatment group RTV/model control group RTV×100%.
Each mouse was weighed and sacrificed. After the tumor was completely stripped off from the body of the mouse, the non-tumor tissues such as blood stains and fat were removed to weigh the tumor and calculate the tumor growth inhibition rate. The average tumor weight of each group of mice is used as an indicator of efficacy. Tumor growth inhibition rate (%)=(1−the average tumor weight of the treatment group/the average tumor weight of the model group)×100%.

[2] = system: transplanted tumor of mouse Lewis lung cancer; assay: Transplanted tumor of mouse Lewis lung cancer; settings: for Tumor Volume (mm3) (d 1) / Tumor Volume (mm3) (d30) / Relative Tumor Proliferation Rate (T/C) / Relative Tumor Volume (RTV): title prints KM mouse H22 cells; for Tumor Volume (mm3) (d30): d 30; for Body Weight (g) (d1) / Body Weight (g) (d 15): mouse, in vivo
Protocol: Lewis lung cancer cells were cultured in a RPMI 1640 culture medium containing 10% fetal bovine serum at 37° C. in a 5% CO2 incubator. The cells in the logarithmic growth phase were subjected to trypsinization with 0.25% trypsin, then the cells were collected to be centrifugated to remove the obtained supernatant, then were washed twice with sterile normal saline. […] The Lewis cells were adjusted to 1×10^7/mL in concentration and stored in ice water. 75% ethanol was used to disinfect the skin under the right armpits of the mice, and each C57BL/6 mouse was soon inoculated subcutaneously with 0.2 ml of the cells at its right armpit.
(§1) In the Lewis lung cancer model, the mice inoculated with the tumor were randomly divided into groups with 10 mice in each group the next day of inoculation. The groups included: a model control group, a positive drug cyclophosphamide control group (CTX, 30 mg/kg), isovaleryl spiramycin I groups with doses of 13, 26 and 52 mg/kg; isovaleryl spiramycin II groups with doses of 13, 26 and 52 mg/kg; isovaleryl spiramycin III groups with doses of 13, 26 and 52 mg/kg. Each group was continuously administered intragastrically for 15 days with a dose of 20 ml/kg.
The tumor-bearing mice were weighed and sacrificed the next day after the last administration. The subcutaneous tumors were dissected and weighed. The average tumor weight of each group is calculated, and the tumor inhibition rate is calculated.
Tumor inhibition rate=(1−T/C)×100%
T: average tumor weight of the drug-administered group; C: average tumor weight of the blank control group.

[3] = Thymus index and spleen index of H22 liver cancer tumor-bearing mice
Protocol: as §1, with “In the H22 liver cancer model,” for “In the Lewis lung cancer model,”, “each group on the next” for “each group the next”, “group (CTX, 26 mg/kg), isovaleryl” for “group (CTX, 30 mg/kg), isovaleryl”, “intragastrically for 7 days with” for “intragastrically for 15 days with”

[4] = Thymus index and spleen index of Lewis lung cancer tumor-bearing mice; settings: n = 6
Protocol: as §1

[5] = A549, high dose (100 mg/kg in method) i.g. 30 days
[6] = A549, low dose (25 mg/kg in method) i.g. 30 days
[7] = A549, medium dose (50 mg/kg in method) i.g. 30 days

mouse weight compared with the model group ([1]; mouse, in vivo): no significant changes
Structure (SMILES): CCC(=O)O[C@@H]1CC(=O)O[C@H](C)C/C=C/C=C/[C@H](O[C@H]2CC[C@H](N(C)C)[C@@H](C)O2)[C@H](C)C[C@H](CC=O)[C@H](O[C@@H]2O[C@H](C)[C@@H](O[C@H]3C[C@@](C)(O)[C@@H](OC(=O)CC(C)C)[C@H](C)O3)[C@H](N(C)C)[C@H]2O)[C@H]1OC [Isovaleryl spiramycin III, isovaleryl spiramycin III]
Relative Tumor Proliferation Rate (T/C) [1, 5]: 33.04%
tumor growth inhibition rate [1, 5]: 66.53%
Relative Tumor Proliferation Rate (T/C) [1, 6]: 65.93%
tumor growth inhibition rate [1, 6]: 37.99%
tumor volume and relative tumor volume compared with the model group ([1]; A549, low, medium and high doses, P<0.05): significantly lower
Relative Tumor Proliferation Rate (T/C) [1, 7]: 47.25%
tumor growth inhibition rate [1, 7]: 55.95%
Inhibition Rate (%) ([1]; A549 nude mice, 25 mg/kg): 37.99%
Relative Tumor Proliferation Rate (T/C) ([1]; A549 nude mice, 25 mg/kg): 65.93%
Relative Tumor Volume (RTV) ([1]; A549 nude mice, 25 mg/kg): 10.70 ± 2.64
Tumor Weight ([1]; A549 nude mice, 25 mg/kg): 1.49 ± 0.42 g
Tumor Volume (mm3) (d 1) ([1]; A549 nude mice, 25 mg/kg): 113.96 ± 6.85 mm3
Tumor Volume (mm3) (d30) ([1]; A549 nude mice, 25 mg/kg): 1216.86 ± 295.20 mm3
Inhibition Rate (%) ([1]; A549 nude mice, 50 mg/kg): 55.95%
Relative Tumor Proliferation Rate (T/C) ([1]; A549 nude mice, 50 mg/kg): 47.25%
Relative Tumor Volume (RTV) ([1]; A549 nude mice, 50 mg/kg): 7.67 ± 2.86
Tumor Weight ([1]; A549 nude mice, 50 mg/kg): 1.06 ± 0.49 g
Tumor Volume (mm3) (d 1) ([1]; A549 nude mice, 50 mg/kg): 113.65 ± 11.57 mm3
Tumor Volume (mm3) (d30) ([1]; A549 nude mice, 50 mg/kg): 856.65 ± 281.96 mm3
Inhibition Rate (%) ([1]; A549 nude mice, 100 mg/kg): 66.53%
Relative Tumor Proliferation Rate (T/C) ([1]; A549 nude mice, 100 mg/kg): 33.04%
Relative Tumor Volume (RTV) ([1]; A549 nude mice, 100 mg/kg): 5.36 ± 3.01
Tumor Weight ([1]; A549 nude mice, 100 mg/kg): 0.80 ± 0.43 g
Tumor Volume (mm3) (d 1) ([1]; A549 nude mice, 100 mg/kg): 118.69 ± 8.13 mm3
Tumor Volume (mm3) (d30) ([1]; A549 nude mice, 100 mg/kg): 632.73 ± 350.89 mm3
Body Weight (g) (d1) ([1]; mouse, in vivo, 25 mg/kg): 21.68 ± 1.25 g
Body Weight (g) (d30) ([1]; mouse, in vivo, 25 mg/kg): 23.97 ± 1.01 g
Body Weight (g) (d1) ([1]; mouse, in vivo, 50 mg/kg): 21.99 ± 1.40 g
Body Weight (g) (d30) ([1]; mouse, in vivo, 50 mg/kg): 24.36 ± 1.73 g
Body Weight (g) (d1) ([1]; mouse, in vivo, 100 mg/kg): 20.57 ± 2.28 g
Body Weight (g) (d30) ([1]; mouse, in vivo, 100 mg/kg): 23.53 ± 1.63 g
growth of Lewis lung cancer in mice ([2]; 13, 26 and 52 mg/kg i.g. 15 days): significantly inhibit
Tumor Volume (mm3) (d 1) ([2]; dose 12.5 mg/kg): 105.02 ± 31.31 mm3
Tumor Volume (mm3) (d30) ([2]; dose 12.5 mg/kg): 1270.87 ± 198.05 mm3
Relative Tumor Proliferation Rate (T/C) ([2]; dose 12.5 mg/kg): 84.57
Relative Tumor Volume (RTV) ([2]; dose 12.5 mg/kg): 13.54 ± 6.73
Inhibition Rate (%) ([2]; dose 13 mg/kg): 35.46%
Tumor Weight ([2]; dose 13 mg/kg): 1.03 ± 0.18 g
Tumor Volume (mm3) (d 1) ([2]; dose 25 mg/kg): 103.29 ± 29.09 mm3
Tumor Volume (mm3) (d30) ([2]; dose 25 mg/kg): 841.92 ± 385.16 mm3
Relative Tumor Proliferation Rate (T/C) ([2]; dose 25 mg/kg): 58.38
Relative Tumor Volume (RTV) ([2]; dose 25 mg/kg): 9.35 ± 5.89
Inhibition Rate (%) ([2]; dose 26 mg/kg): 48.96%
Tumor Weight ([2]; dose 26 mg/kg): 0.82 ± 0.34 g
Tumor Volume (mm3) (d 1) ([2]; dose 50 mg/kg): 104.43 ± 23.09 mm3
Tumor Volume (mm3) (d30) ([2]; dose 50 mg/kg): 677.35 ± 237.77 mm3
Relative Tumor Proliferation Rate (T/C) ([2]; dose 50 mg/kg): 41.81
Relative Tumor Volume (RTV) ([2]; dose 50 mg/kg): 6.69 ± 2.56
Inhibition Rate (%) ([2]; dose 52 mg/kg): 57.54%
Tumor Weight ([2]; dose 52 mg/kg): 0.68 ± 0.18 g
Body Weight (g) (d1) ([2]; 13 mg/kg): 19.62 ± 1.30 g
Body Weight (g) (d 15) ([2]; 13 mg/kg): 22.52 ± 0.57 g
Body Weight (g) (d1) ([2]; 26 mg/kg): 19.58 ± 0.63 g
Body Weight (g) (d 15) ([2]; 26 mg/kg): 22.28 ± 0.66 g
Body Weight (g) (d1) ([2]; 52 mg/kg): 20.00 ± 0.60 g
Body Weight (g) (d 15) ([2]; 52 mg/kg): 22.42 ± 1.66 g
Spleen Index (%) ([3]; dose 13 mg/kg): 0.68 ± 0.15%
Thymus Index (%) ([3]; dose 13 mg/kg): 0.15 ± 0.06%
Spleen Index (%) ([3]; dose 26 mg/kg): 0.66 ± 0.21%
Thymus Index (%) ([3]; dose 26 mg/kg): 0.15 ± 0.05%
Spleen Index (%) ([3]; dose 52 mg/kg): 0.65 ± 0.26%
Thymus Index (%) ([3]; dose 52 mg/kg): 0.13 ± 0.02%
Spleen Index (%) ([4]; dose 13 mg/kg): 0.62 ± 0.25%
Thymus Index (%) ([4]; dose 13 mg/kg): 0.12 ± 0.10%
Spleen Index (%) ([4]; dose 26 mg/kg): 0.68 ± 0.11%
Thymus Index (%) ([4]; dose 26 mg/kg): 0.11 ± 0.07%
Spleen Index (%) ([4]; dose 52 mg/kg): 0.74 ± 0.23%
Thymus Index (%) ([4]; dose 52 mg/kg): 0.13 ± 0.06%
